According to ChEMBL document CHEMBL4304811, “Development of a Water-Soluble Indolylmaleimide Derivative IM-93 Showing Dual Inhibition of Ferroptosis and NETosis” (ACS Med Chem Lett, 2019):

Columns and labels:
[1] = molecular target: Casein kinase I isoform delta (Homo sapiens) (UniProt P48730); test: Binding affinity to wild-type human full length CSNK1D (M1 to K409 residues) expressed in bacterial expression system assessed as residual binding level at 10 uM by Kinomescan method relative to control
[2] = molecular target: Ribosomal protein S6 kinase alpha-3 (Homo sapiens) (UniProt P51812); test: Binding affinity to wild-type human partial length N- terminal RSK2 kinase domain 1 (M1 to D394 residues) expressed in mammalian expression system assessed as residual binding level at 10 uM by Kinomescan method relative to control
[3] = molecular target: Activin receptor type-2A (Homo sapiens) (UniProt P27037); test: Binding affinity to wild-type human ACVR2A (V171 to T499 residues) expressed in bacterial expression system assessed as residual binding level at 10 uM by Kinomescan method relative to control
[4] = molecular target: Calcium/calmodulin-dependent protein kinase type II subunit beta (Homo sapiens) (UniProt Q13554); test: Binding affinity to wild-type human partial length CAMK2B (M1 to Q380 residues) expressed in bacterial expression system assessed as residual binding level at 10 uM by Kinomescan method relative to control
[5] = molecular target: Serine/threonine-protein kinase VRK2 (Homo sapiens) (UniProt Q86Y07); test: Binding affinity to wild-type human partial length VRK2 (M1 to T336 residues) expressed in mammalian expression system assessed as residual binding level at 10 uM by Kinomescan method relative to control
[6] = molecular target: Serine/threonine-protein kinase MARK1 (Homo sapiens) (UniProt Q9P0L2); test: Binding affinity to wild-type human partial length MARK1 (Q30 to T341 residues) expressed in bacterial expression system assessed as residual binding level at 10 uM by Kinomescan method relative to control
[7] = test system: Mast/stem cell growth factor receptor Kit (Homo sapiens), P10721 [D816V]; test: Binding affinity to human partial length KIT D816V mutant (I571 to D952 residues) expressed in bacterial expression system assessed as residual binding level at 10 uM by Kinomescan method relative to control
[8] = molecular target: Dual serine/threonine and tyrosine protein kinase (Homo sapiens) (UniProt Q6XUX3); test: Binding affinity to wild-type human full length RIPK5 (M1 to T929 residues) expressed in mammalian expression system assessed as residual binding level at 10 uM by Kinomescan method relative to control
[9] = molecular target: Serine/threonine-protein kinase MARK2 (Homo sapiens) (UniProt Q7KZI7); test: Binding affinity to wild-type human partial length MARK2 (M1 to R450 residues) expressed in bacterial expression system assessed as residual binding level at 10 uM by Kinomescan method relative to control
[10] = molecular target: Mitogen-activated protein kinase 3 (Homo sapiens) (UniProt P27361); test: Binding affinity to wild-type human full length ERK1 (M1 to P379 residues) expressed in bacterial expression system assessed as residual binding level at 10 uM by Kinomescan method relative to control
[11] = molecular target: Death-associated protein kinase 1 (Homo sapiens) (UniProt P53355); test: Binding affinity to wild-type human partial length DAPK1 (M1 to F296 residues) expressed in bacterial expression system assessed as residual binding level at 10 uM by Kinomescan method relative to control
[12] = molecular target: Ribosomal protein S6 kinase alpha-5 (Homo sapiens) (UniProt O75582); test: Binding affinity to wild-type human partial length C-terminal RPS6KA5 kinase domain 2 (V390 to T718 residues) expressed in bacterial expression system assessed as residual binding level at 10 uM by Kinomescan method relative to control
[13] = molecular target: Ribosomal protein S6 kinase alpha-5 (Homo sapiens) (UniProt O75582); test: Binding affinity to wild-type human partial length N- terminal RPS6KA5 kinase domain 1 expressed in bacterial expression system assessed as residual binding level at 10 uM by Kinomescan method relative to control
[14] = molecular target: Mitogen-activated protein kinase 7 (Homo sapiens) (UniProt Q13164); test: Binding affinity to wild-type human partial length ERK5 (M1 to A409 residues) expressed in bacterial expression system assessed as residual binding level at 10 uM by Kinomescan method relative to control
[15] = molecular target: Mitogen-activated protein kinase kinase kinase 3 (Homo sapiens) (UniProt Q99759); test: Binding affinity to wild-type human partial length MAP3K3 (E320 to Y626 residues) expressed in mammalian expression system assessed as residual binding level at 10 uM by Kinomescan method relative to control
[16] = molecular target: Homeodomain-interacting protein kinase 1 (Homo sapiens) (UniProt Q86Z02); test: Binding affinity to wild-type human partial length HIPK1 (M146 to I555 residues) expressed in mammalian expression system assessed as residual binding level at 10 uM by Kinomescan method relative to control
[17] = molecular target: 5'-AMP-activated protein kinase catalytic subunit alpha-2 (Homo sapiens) (UniProt P54646); test: Binding affinity to wild-type human partial length AMPK alpha2 (M1 to E306 residues) expressed in bacterial expression system assessed as residual binding level at 10 uM by Kinomescan method relative to control
[18] = molecular target: NUAK family SNF1-like kinase 1 (Homo sapiens) (UniProt O60285); test: Binding affinity to wild-type human partial length ARK5 (E25 to I332 residues) expressed in bacterial expression system assessed as residual binding level at 10 uM by Kinomescan method relative to control
[19] = test system: Phosphatidylinositol 4,5-bisphosphate 3-kinase catalytic subunit alpha isoform (Homo sapiens), P42336 [Q546K]; test: Binding affinity to human partial length PIK3CA Q546K mutant (R108 to N1068 residues) expressed in mammalian expression system assessed as residual binding level at 10 uM by Kinomescan method relative to control
[20] = molecular target: Glycogen synthase kinase-3 alpha (Homo sapiens) (UniProt P49840); test: Binding affinity to wild-type human full length GSK3A (M1 to S483 residues) expressed in bacterial expression system assessed as residual binding level at 10 uM by Kinomescan method relative to control
[21] = molecular target: Casein kinase II subunit alpha' (Homo sapiens) (UniProt P19784); test: Binding affinity to wild-type human full length CSNK2A2 (M1 to R350 residues) expressed in mammalian expression system assessed as residual binding level at 10 uM by Kinomescan method relative to control
[22] = molecular target: Serine/threonine-protein kinase MAK (Homo sapiens) (UniProt P20794); test: Binding affinity to wild-type human partial length MAK (M1 to P314 residues) expressed in bacterial expression system assessed as residual binding level at 10 uM by Kinomescan method relative to control
[23] = molecular target: Misshapen-like kinase 1 (Homo sapiens) (UniProt Q8N4C8); test: Binding affinity to wild-type human partial length MINK (M1 to K312 residues) expressed in mammalian expression system assessed as residual binding level at 10 uM by Kinomescan method relative to control
[24] = molecular target: Glycogen synthase kinase-3 beta (Homo sapiens) (UniProt P49841); test: Binding affinity to wild-type human full length GSK3B (M1 to T433 residues) expressed in mammalian expression system assessed as residual binding level at 10 uM by Kinomescan method relative to control

CC(C)N1C(=O)C(NCCCN(C)C)=C(c2cn(C)c3ccccc23)C1=O.Cl
Activity [1]: 100%
Activity [2]: 92%
Activity [3]: 100%
Activity [4]: 100%
Activity [5]: 95%
Activity [6]: 67%
Activity [7]: 94%
Activity [8]: 100%
Activity [9]: 93%
Activity [10]: 87%
Activity [11]: 100%
Activity [12]: 96%
Activity [13]: 97%
Activity [14]: 100%
Activity [15]: 100%
Activity [16]: 100%
Activity [17]: 89%
Activity [18]: 94%
Activity [19]: 100%
Activity [20]: 83%
Activity [21]: 78%
Activity [22]: 100%
Activity [23]: 94%
Activity [24]: 84%
